Assay results reported in patent US20140088000A1, “Leptin Rescues Neurons from Alzheimer's Disease Related Pathways Triggered by Lipid Burden” (Neurotez, Inc., priority 2012, published 2014).

How the values were obtained:
[1] = system: tau; assay: Phospho-tau (pThr231, pSer396) and total tau ELISA in RA-SY5Y lysates; type: cell-based, human; conditions: 6 h, FIG. 3; for effect of lipid insult on tau phosphorylation (pTau231, pTau396): no Leptin, normalized to total tau
Description: (§1) RA-SY5Y were treated with Leptin (100 ng/ml) in the presence of ceramide (25 μM), cholesterol (27.5 μg/mL), oleic acid (30 μg/mL) or vehicle (MβCD—675 μg/mL; or DMSO—0.125%) for 6 h, and then harvested by scraping. Preparation of whole cell lysates from cell pellets was performed as described previously (32).
Aβ(1-40) levels in cell culture media from SY5YAPP751 cells treated for 18 h with the aforementioned metabolic insults in the presence or absence of Leptin, were determined using the Human βAmyloid 1-40 ELISA kit (Invitrogen; Carlsbad, Calif.), and phospho- and total tau levels in RASY5Y lysates were determined using the Human Tau pSer396, pThr231 and Total Tau ELISA kits (Invitrogen) according to manufacturer's specific instructions. Aβ(1-40), phosho- and total tau levels were calculated from a standard curve developed with OD at 450 nm using 8 serial dilutions of known concentration.
Metabolic stress has been linked to the activation of AD pathological pathways, with lipids known to play an important role (21-23). We therefore investigated the extent to which lipids can induce hyperphosphorylation of tau (FIG. 3) and AP production (FIG. 4) in neuronal cells, and determined whether Leptin could prevent these effects. Utilizing similar lipid doses as previous experiments, RA-SY5Y were treated for 6 h with Leptin (100 ng/mL) or control in the presence or absence of ceramide, cholesterol or oleic acid, and phosphorylation of tau at two different epitopes, pTau231 (FIG. 3A) or pTau396 (FIG. 3B), as well as total tau measured by ELISA.

[2] = system: RA-SY5Y cells; assay: Cell viability assay (Cell-Titer Blue) during lipid/metabolic insult; type: cell-based, human
Description: The human neuroblastoma cell line, SH-SY5Y, was purchased from ATCC. Cell culture was performed according to manufacturer's specific guidelines. Cells were propagated in MEM containing 10% FBS. Neuronal differentiation was performed as described previously (32).
RA-SY5Y, at 2×10^4 cells/well, were seeded in 96-well microplates and treated for 48 h with a range of concentrations of MβCD, DMSO, ceramide, cholesterol or oleic acid to determine effective doses for 50-70% viability (data not shown), or in the presence of a range of concentrations of Leptin to determine effective doses to prevent cell death. Viability was assessed using the Cell-Titer Blue Viability Assay (Promega) by adding 20 μL of the reagent to each well for 4 h, and plates read by a microplate reader with fluorescence capabilities at Ex530-570 nm/Em580-620 nm. Viability was determined using a standard curve of known cell number and plotted as a percent of non-treated or vehicle control.
Doses of the lipids which decreased neuronal viability by 25-50% (Ceramide—25 μM; Cholesterol—27.5 μg/mL and Oleic Acid—30 μg/mL) after 18 h treatment (data not shown) were used to determine whether co-treatment with Leptin, an important modulator of lipid homeostasis, could attenuate the toxic effects of the insults (FIG. 1). RA-SY 5Y were treated for 18 h with either a low (10 ng/mL; gray bars) or moderate (100 ng/mL; black bars) dose of Leptin or control (white bars) in the presence or absence of ceramide, cholesterol or oleic acid, and cell viability measured. All lipid insults induced a significant (p<0.05) decrease in cell viability in the range of 35±15% when treated with control alone.

[3] = system: AMP-activated protein kinase (AMPK); assay: AMPK activity assay in lysates of treated RA-SY5Y cells (CycLex kit, Compound C-sensitive kinase activity); type: cell-based, human; conditions: 6 h, FIG. 2A
Description: as §1
AMPK activity in RA-SY5Y cell lysates was determined using the CycLex AMPK Kinase Assay Kit (MBL International; Woburn, Mass.), as previously described (33, 34). Briefly, “relative AMPK activity”, hereafter referred to as “AMPK activity”, is defined as Compound C-sensitive protein kinase activity in cell lysates. […] Lysates were incubated in the presence or absence of 10 μM Compound C, and protein kinase activity determined by measuring phosphorylation of the Insulin Receptor Substrate-I (IRS-1) through immunoassay and conversion of a chromogenic substrate at an absorbance of 450 nm (Ai50). […]
We have previously shown that Leptin regulates AD pathways via activation of the cellular energy sensors, AMP-activated protein kinase (AMPK) and the sirtuins (SIRT) in neuronal cells (35, 36). To this end, we determined whether Leptin has the ability to attenuate these effects on cellular energetics in an acute model of metabolic stress (FIG. 2). […]

[4] = system: sirtuins (SIRT); assay: SIRT (total sirtuin) activity assay in lysates of treated RA-SY5Y cells (nicotinamide-sensitive deacetylase activity); type: cell-based, human; conditions: Leptin 100 ng/mL, 6 h, with ceramide, cholesterol or oleic acid, FIG. 2B
Description: as §1
“Total sirtuin”, hereafter termed “SIRT’, activity in cell lysates was determined using the HDAC Fluorimetric Cellular Activity Assay Kit (Enzo Life Sciences; Plymouth Meeting, Pa.), according to manufacturer's specified guidelines. Briefly, SIRT activity is defined as nicotinamide-sensitive deacetylase (class III HDAC) activity in cell lysates. 5 mM nicotinamide was identified by the manufacturer as a dose in which there was no further reduction in deacetylase activity upon increasing concentration. RA-SY5Y cell lysates were incubated in the presence or absence of 5 mM nicotinamide, and SIRT activity determined by adding the Flour de Lys Substrate for deacetylation followed by exposure to the Fluor de Lys Developer to generate a fluorescent signal for detection using a fluorimeter (EX−350-380 nm/Em440-460 nm). Normalized SIRT activity was measured in units of fluorescence intensity (Fi) and defined as: (Filysate−Filysate+nicotinamide)/μg proteinlysate. […]

[5] = system: Aβ(1-40); assay: Extracellular Aβ(1-40) ELISA in culture media of SY5Y cells stably over-expressing human APP751; type: cell-based; conditions: Leptin 100 ng/mL, 18 h, SY5Y APP751, with ceramide, cholesterol or oleic acid; FIG. 4
Description: To generate SY5Y stably over-expressing amyloid precursor protein (APP), cells were transfected with a mammalian expression vector encoding the 751 amino acid isoform of human APP (APP751—Accession #NM 201413) (Origene Technologies; Rockville, Md.) using the FuOENE HD transfection reagent, according to manufacturer's specific instructions (Promega; Madison, Wis.). Briefly, cells were transiently transfected with APP751 or vehicle for 48 h and then switched into selection medium containing a concentration range of the antibiotic 0418 (100-600 μg/mL) to determine the optimal dose for stable selection. Selection media was changed every 3 days to remove non-viable cells. After 3 weeks, 200 μg/mL 0418 yielded distinct colonies while all vehicle-transfected cells were non-viable. […] Aβ(1-40) levels in cell culture media from SY5YAPP751 cells treated for 18 h with the aforementioned metabolic insults in the presence or absence of Leptin, were determined using the Human βAmyloid 1-40 ELISA kit (Invitrogen; Carlsbad, Calif.), and phospho- and total tau levels in RASY5Y lysates were determined using the Human Tau pSer396, pThr231 and Total Tau ELISA kits (Invitrogen) according to manufacturer's specific instructions. Aβ(1-40), phosho- and total tau levels were calculated from a standard curve developed with OD at 450 nm using 8 serial dilutions of known concentration. […]

[6] = mice having mutations on the ob gene, administration of leptin; cited from earlier work
[7] = system: Aβ; conditions: neurons; cited from earlier work
[8] = transgenic model of AD; cited from earlier work

Compound	effect of lipid insult on tau phosphorylation (pTau231, pTau396) [1]	cell viability under lipid insult, low dose Leptin ([2]; Leptin 10 ng/mL, 18 h, with ceramide, cholesterol or oleic acid, FIG. 1)	cell viability under lipid insult, moderate dose Leptin ([2]; Leptin 100 ng/mL, 18 h, with ceramide, cholesterol or oleic acid, FIG. 1)	cell viability under lipid insult, high dose Leptin ([2]; Leptin 1000 ng/mL, versus 100 ng/mL group, data not shown)	AMPK activity under lipid insult with Leptin ([3]; Leptin 100 ng/mL, with ceramide, cholesterol or oleic acid)	SIRT activity under lipid insult with Leptin [4]	tau hyperphosphorylation under lipid insult with Leptin ([1]; Leptin 100 ng/mL simultaneous treatment, oleic acid insult (far right group))	extracellular Aβ(1-40) levels under lipid insult with Leptin [5]	reduction of body weight [6] [%]	amount of Aβ secreted into the medium [7]	cognitive performance [8]	tau phosphorylation and Aβ production [8]	effect of lipid insult on AMPK activity ([3]; cholesterol 27.5 μg/mL, no Leptin)
CCCCCCCC/C=C\CCCCCCCC(=O)O [Oleic Acid, oleic acid]	induced significant (p<0.05) increases in tau phosphorylation at either epitope	–	–	–	–	–	–	–	–	–	–	–	–
Leptin: recombinant human Leptin purchased from Sigma-Aldrich; adipocyte-derived helical protein hormone	–	significantly (p<0.05) improve viability only in response to the cholesterol insult	significantly (p<0.05) improved viability in response to all challenges	not significantly (p>0.05) different from the moderate group's viability	significantly (p<0.05) boost both AMPK and SIRT activity in response to all lipid insults	significantly (p<0.05) boost both AMPK and SIRT activity in response to all lipid insults, with the exception of ceramide for SIRT	significantly (p<0.05) prevented this hyperphosphorylation	significantly (p<0.05) reduced Aβ(1-40) levels as similar to control	30	reduces the amount of Aβ secreted into the medium in a time- and dose-dependent fashion	improves cognitive performance	reduces both tau phosphorylation and Aβ production	–
CC(C)CCC[C@@H](C)[C@H]1CC[C@H]2[C@@H]3CC=C4C[C@@H](O)CC[C@]4(C)[C@H]3CC[C@]12C [Cholesterol, cholesterol, reference compound]	induced significant (p<0.05) increases in tau phosphorylation at either epitope	–	–	–	–	–	–	–	–	–	–	–	significantly (p<0.05) suppress
